Laboratory results published in patent US12716050B2, “Two methods for preparing universal microbial medium by eutectic system-based cellulose liquefaction” (Xinjiang University, priority 2021, dated 2026).
Like-named read-outs stand apart in the source and are kept apart here.

How the values were obtained:
[1] = Screening of ionic liquids for dissolving microcrystalline cellulose; assay type: physicochemical
Escherichia coli = settings: LB solid medium, 48 h
Text: Therefore, a purpose of this example is to screen a concentration range of the ionic liquid contained in the medium.

[2] = No. 8: 10 g IL, 1 g microcrystalline cellulose, 90° C., co-heated
[3] = No. 11: 5 g IL, 3 g microcrystalline cellulose, 90° C., co-heated
[4] = No. 3: 5 g IL, 3 g microcrystalline cellulose, 90° C., co-heated

Structure (SMILES): C=CCn1cc[n+](C)c1.[Cl-] [1-allyl-3-methylimidazolium chloride]
- Conclusion (dissolution effect of microcrystalline cellulose) [1, 2]: desirable
- Dissolution time [1, 2]: 40 min
- Conclusion (dissolution effect of microcrystalline cellulose) ([1]; No. 9: 5 g IL, 1 g microcrystalline cellulose, IL heated to 100° C.): common
- Dissolution time ([1]; No. 9: 5 g IL, 1 g microcrystalline cellulose, IL heated to 100° C., cellulose added): 20 min
- Conclusion (dissolution effect of microcrystalline cellulose) ([1]; No. 10: 5 g IL, 2 g microcrystalline cellulose, 100° C., soaked in IL for 20 h, co-heated): common
- Dissolution time ([1]; No. 10: 5 g IL, 2 g microcrystalline cellulose, 100° C., soaked in IL for 20 h, co-heated in water bath): 10 min
- Conclusion (dissolution effect of microcrystalline cellulose) [1, 3]: has a poor
- Dissolution time [1, 3]: 240 min

Structure (SMILES): CCCCn1cc[n+](C)c1.[Cl-] [1-butyl-3-methylimidazolium chloride]
- Conclusion (dissolution effect of microcrystalline cellulose) ([1]; No. 1: 10 g IL, 1 g microcrystalline cellulose, 90° C., co-heated): desirable
- Dissolution time ([1]; No. 1: 10 g IL, 1 g microcrystalline cellulose, 90° C., co-heated, stirred 20 sec every 5 min): 40 min
- Conclusion (dissolution effect of microcrystalline cellulose) ([1]; No. 2: 5 g IL, 3 g microcrystalline cellulose, 110° C., IL preheated to liquid state): desirable
- Dissolution time ([1]; No. 2: 5 g IL, 3 g microcrystalline cellulose, 110° C., IL preheated to liquid state, mixed by stirring): 1 min
- Conclusion (dissolution effect of microcrystalline cellulose) [1, 4]: common
- Dissolution time [1, 4]: 240 min
- Effect in pretreatment of cellulose ([1]; overall conclusion of Example 1): could well process the cellulose
- Ionic liquid concentration at which the growth of Escherichia coli is inhibited (Escherichia coli): not less than 3%
- Growth state of strains (Escherichia coli; ionic solution concentration 1%): Normal
- Growth state of strains (Escherichia coli; ionic solution concentration 3%): Slightly inhibited
- Growth state of strains (Escherichia coli; ionic solution concentration 4%): Inhibited growth
- Growth state of strains (Escherichia coli; ionic solution concentration 5%): Inhibited growth
- Growth state of strains (Escherichia coli; ionic solution concentration 6%): No growth
- Growth state of strains (Escherichia coli; ionic solution concentration 7%): No growth
- Conclusion (dissolution effect) (Treatment 1: 10 g IL, 1 g microcrystalline cellulose, co-heated to 90° C., repeated): Poor
- Conclusion (dissolution effect) (Treatment 2: 10 g IL, 1 g cellulose, IL heated to 90° C., heating to 90° C. repeated): Common
- Conclusion (dissolution effect) (Treatment 3: 10 g IL, 1 g cellulose, IL heated to 90° C., heating to 100° C. repeated): Common
- Conclusion (dissolution effect) (Treatment 4: 10 g IL, 1 g cellulose, IL heated to 90° C., heating to 110° C. repeated): Common
- Conclusion (dissolution effect) (Treatment 5: 10 g IL, 1 g cellulose, IL heated to 90° C., heating to 120° C. repeated): Common
- Conclusion (dissolution effect) (Treatment 6: 10 g IL, 1 g cellulose, 90° C., 120° C., heating to 180° C. repeated): Desirable
- Conclusion (dissolution effect) (Treatment 7: 8 g IL, 1 g cellulose, 90° C., 120° C., heating to 180° C. repeated): Desirable
- Conclusion (dissolution effect) (Treatment 8: 5 g IL, 1 g cellulose, 90° C., 180° C., heating to 180° C. repeated): Desirable
- Conclusion (dissolution effect) (Treatment 9: 5 g IL, 1.5 g cellulose, 90° C., 120° C., heating to 180° C. repeated): Desirable
- Conclusion (dissolution effect) (Treatment 10: 5 g IL, 2 g cellulose, 90° C., 120° C., heating to 180° C. repeated): Desirable
- Conclusion (dissolution effect) (Treatment 11: 5 g IL, 2.5 g cellulose, 90° C., 120° C., heating to 180° C. repeated): Desirable
